# Assay results: PubChem BioAssay (NCI)
#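 1) Cells in 96-well plates. 2) Compound, 48 h, 5 concentrations. 3) Linear interpolation between surrounding doses. 4) Unreached endpoint = highest concentration. GI50 marks 50% less growth. The concentration for full growth arrest is given as TGI.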
# What was measured:
# Experiment in all cases: growth of human tumour cells (NCI), 48 h
# [1] = system: 786-0 renal
# [2] = system: A498 renal
# [3] = system: A549 NSCLC
# [4] = system: ACHN renal
# [5] = system: BT-549 breast
# [6] = system: CAKI-1 renal
# [7] = system: CCRF-CEM leukemia
# [8] = system: COLO 205 colon
# [9] = system: DU-145 prostate
# [10] = system: EKVX NSCLC
# [11] = system: HCC-2998 colon
# [12] = system: HCT-116 colon
# [13] = system: HCT-15 colon
# [14] = system: HL-60(TB) leukemia
# [15] = system: HOP-62 NSCLC
# [16] = system: HOP-92 NSCLC
# [17] = system: HS 578T breast
# [18] = system: HT29 colon
# [19] = system: IGROV1 ovarian
# [20] = system: K-562 leukemia
# [21] = system: KM12 colon
# [22] = system: LOX IMVI melanoma
# [23] = system: M14 melanoma
# [24] = system: MALME-3M melanoma
# [25] = system: MCF7 breast
# [26] = system: MDA-MB-231 breast
# [27] = system: MDA-MB-435
# [28] = system: MOLT-4 leukemia
# [29] = system: NCI-H226 lung
# [30] = system: NCI-H23 lung
# [31] = system: NCI-H460 lung
# [32] = system: NCI-H522 lung
# [33] = system: NCI/ADR-RES ovarian
# [34] = system: OVCAR-3 ovarian
# [35] = system: OVCAR-4 ovarian
# [36] = system: OVCAR-5 ovarian
# [37] = system: OVCAR-8 ovarian
# [38] = system: PC-3 prostate
# [39] = system: RPMI-8226 leukemia
# [40] = system: RXF 393 renal
# [41] = system: SF-268 CNS
# [42] = system: SF-295 CNS
# [43] = system: SF-539 CNS
# [44] = system: SK-MEL-2 melanoma
# [45] = system: SK-MEL-28 melanoma
# [46] = system: SK-MEL-5 melanoma
# [47] = system: SK-OV-3 ovarian
# [48] = system: SN12C renal
# [49] = system: SNB-19 CNS
# [50] = system: SNB-75 CNS
# [51] = system: SR leukemia
# [52] = system: SW-620 colon
# [53] = system: T-47D breast
# [54] = system: TK-10 renal
# [55] = system: U251 CNS
# [56] = system: UACC-257 melanoma
# [57] = system: UACC-62 melanoma
# [58] = system: UO-31 renal
smiles,measurement,setting,value
COc1ncc(-c2ccc3nccc(C#CCCCCC(=O)NO)c3c2)cc1NS(=O)(=O)c1ccc(F)cc1F,GI50,[1],81.9 nM
same,TGI,[1],3680 nM
same,GI50,[2],30.3 nM
same,TGI,[2],96.2 nM
same,GI50,[3],104 nM
same,TGI,[3],3170 nM
same,GI50,[4],111 nM
same,TGI,[4],12300 nM
same,GI50,[5],53.5 nM
same,TGI,[5],2770 nM
same,GI50,[6],875 nM
same,TGI,[6],11800 nM
same,GI50,[7],105 nM
same,TGI,[7],5650 nM
same,GI50,[8],89.7 nM
same,TGI,[8],2180 nM
same,GI50,[9],134 nM
same,TGI,[9],12600 nM
same,GI50,[10],56.9 nM
same,TGI,[10],4090 nM
same,GI50,[11],75.8 nM
same,TGI,[11],4260 nM
same,GI50,[12],123 nM
same,TGI,[12],2800 nM
same,GI50,[13],150 nM
same,TGI,[13],13000 nM
same,GI50,[14],66.5 nM
same,TGI,[14],3060 nM
same,GI50,[15],125 nM
same,TGI,[15],10000 nM
same,GI50,[16],15.6 nM
same,TGI,[16],106 nM
same,GI50,[17],30.7 nM
same,TGI,[17],1170 nM
same,GI50,[18],55 nM
same,TGI,[18],10500 nM
same,GI50,[19],< 14.6 nM
same,TGI,[19],559 nM
same,GI50,[20],1980 nM
same,TGI,[20],16700 nM
same,GI50,[21],180 nM
same,TGI,[21],12100 nM
same,GI50,[22],96.8 nM
same,TGI,[22],1900 nM
same,GI50,[23],148 nM
same,TGI,[23],3620 nM
same,GI50,[24],60.4 nM
same,TGI,[24],270 nM
same,GI50,[25],18.6 nM
same,TGI,[25],4450 nM
same,GI50,[26],998 nM
same,TGI,[26],7850 nM
same,GI50,[27],132 nM
same,TGI,[27],4830 nM
same,GI50,[28],62.2 nM
same,TGI,[28],1420 nM
same,GI50,[29],1590 nM
same,TGI,[29],15500 nM
same,GI50,[30],984 nM
same,TGI,[30],13000 nM
same,GI50,[31],109 nM
same,TGI,[31],11200 nM
same,GI50,[32],92.9 nM
same,TGI,[32],2310 nM
same,GI50,[33],3590 nM
same,TGI,[33],30000 nM
same,GI50,[34],65.1 nM
same,TGI,[34],2520 nM
same,GI50,[35],1720 nM
same,TGI,[35],14100 nM
same,GI50,[36],63.4 nM
same,TGI,[36],8200 nM
same,GI50,[37],131 nM
same,TGI,[37],4080 nM
same,GI50,[38],54.5 nM
same,TGI,[38],4800 nM
same,GI50,[39],1020 nM
same,TGI,[39],4790 nM
same,GI50,[40],46.6 nM
same,TGI,[40],750 nM
same,GI50,[41],121 nM
same,TGI,[41],3770 nM
same,GI50,[42],70.1 nM
same,TGI,[42],2030 nM
same,GI50,[43],68.9 nM
same,TGI,[43],1340 nM
same,GI50,[44],106 nM
same,TGI,[44],1770 nM
same,GI50,[45],69.2 nM
same,TGI,[45],2100 nM
same,GI50,[46],80.1 nM
same,TGI,[46],1340 nM
same,GI50,[47],35 nM
same,TGI,[47],180 nM
same,TGI,[48],17500 nM
same,GI50,[49],147 nM
same,TGI,[49],5980 nM
same,GI50,[50],54.3 nM
same,TGI,[50],827 nM
same,GI50,[51],146 nM
same,TGI,[51],4240 nM
same,GI50,[52],158 nM
same,TGI,[52],3900 nM
same,TGI,[53],55 nM
same,GI50,[54],29.4 nM
same,TGI,[54],1370 nM
same,GI50,[55],128 nM
same,TGI,[55],2670 nM
same,GI50,[56],198 nM
same,TGI,[56],1440 nM
same,GI50,[57],< 19.5 nM
same,GI50,[58],73.7 nM
same,TGI,[58],4000 nM
COc1ccc(/C=C\c2cc(OC)c(OC)c(OC)c2)c(NS(=O)(=O)c2ccc(F)cc2)c1O,GI50,[1],294 nM
same,TGI,[1],47500 nM
same,GI50,[2],23.5 nM
same,TGI,[2],96.6 nM
same,GI50,[3],164 nM
same,TGI,[3],> 100000 nM
same,GI50,[4],189 nM
same,TGI,[4],96900 nM
same,GI50,[5],61.9 nM
same,TGI,[5],16800 nM
same,GI50,[6],115 nM
same,TGI,[6],> 100000 nM
same,GI50,[7],43.5 nM
same,TGI,[7],> 100000 nM
same,GI50,[8],1930 nM
same,TGI,[8],7940 nM
same,GI50,[9],39 nM
same,GI50,[10],466 nM
same,TGI,[10],> 100000 nM
same,GI50,[11],169 nM
same,TGI,[11],6900 nM
same,GI50,[12],42.8 nM
same,TGI,[12],> 100000 nM
same,GI50,[13],75.2 nM
same,TGI,[13],> 100000 nM
same,GI50,[14],32 nM
same,TGI,[14],23800 nM
same,GI50,[15],610 nM
same,TGI,[15],> 100000 nM
same,GI50,[16],72.3 nM
same,TGI,[16],16700 nM
same,GI50,[17],113 nM
same,TGI,[17],> 100000 nM
same,GI50,[18],2280 nM
same,TGI,[18],20500 nM
same,GI50,[19],212 nM
same,TGI,[19],> 100000 nM
same,GI50,[20],35.3 nM
same,TGI,[20],> 76000 nM
same,GI50,[21],55.6 nM
same,TGI,[21],> 100000 nM
same,GI50,[22],142 nM
same,TGI,[22],36800 nM
same,GI50,[23],32.6 nM
same,TGI,[23],> 100000 nM
same,GI50,[24],10200 nM
same,TGI,[24],> 100000 nM
same,GI50,[25],48.3 nM
same,TGI,[25],> 46300 nM
same,GI50,[26],97.7 nM
same,TGI,[26],70900 nM
same,GI50,[27],20.4 nM
same,TGI,[27],51.5 nM
same,GI50,[28],46.6 nM
same,TGI,[28],> 100000 nM
same,GI50,[29],142 nM
same,GI50,[30],128 nM
same,TGI,[30],> 62400 nM
same,GI50,[31],41.9 nM
same,TGI,[31],26100 nM
same,GI50,[32],222 nM
same,TGI,[32],15000 nM
same,GI50,[33],179 nM
same,TGI,[33],3400 nM
same,GI50,[34],32.2 nM
same,TGI,[34],1410 nM
same,GI50,[35],552 nM
same,TGI,[35],> 100000 nM
same,GI50,[36],202 nM
same,TGI,[36],> 100000 nM
same,GI50,[37],128 nM
same,TGI,[37],> 100000 nM
same,GI50,[38],42.8 nM
same,TGI,[38],> 70800 nM
same,GI50,[39],44.8 nM
same,TGI,[39],18900 nM
same,GI50,[40],54.2 nM
same,TGI,[40],> 100000 nM
same,GI50,[41],224 nM
same,TGI,[41],> 100000 nM
same,GI50,[42],214 nM
same,TGI,[42],> 45900 nM
same,GI50,[43],62.2 nM
same,TGI,[43],192 nM
same,GI50,[44],184 nM
same,TGI,[44],> 100000 nM
same,GI50,[45],484 nM
same,TGI,[45],> 100000 nM
same,GI50,[46],102 nM
same,TGI,[46],515 nM
same,GI50,[47],211 nM
same,TGI,[47],> 100000 nM
same,GI50,[48],180 nM
same,TGI,[48],> 100000 nM
same,GI50,[49],156 nM
same,TGI,[49],> 100000 nM
same,GI50,[50],34.9 nM
same,TGI,[50],> 100000 nM
same,GI50,[51],41 nM
same,TGI,[51],> 68100 nM
same,GI50,[52],43.4 nM
same,TGI,[52],> 100000 nM
same,GI50,[53],38500 nM
same,TGI,[53],> 100000 nM
same,GI50,[54],2250 nM
same,TGI,[54],> 100000 nM
same,GI50,[55],142 nM
same,TGI,[55],> 100000 nM
same,GI50,[56],20500 nM
same,TGI,[56],> 100000 nM
same,GI50,[57],45.2 nM
same,TGI,[57],> 80100 nM
same,GI50,[58],333 nM
same,TGI,[58],> 82900 nM
